From article PMC12275099, “VX-445 (elexacaftor) inhibits chloride secretion across human bronchial epithelial cells by directly blocking KCa3.1 channels” (PNAS Nexus, 2025)

Test system: WT CFTR HBEs
Assay: Ussing chamber Isc, DCEBIO-induced Cl- secretion
Type: cell-based, human
Settings: VX-445 10 µM
Excerpt: Primary human bronchial epithelial cells (HBEs) were collected from unused or discarded samples from the Center for Organ Recovery and Education via the University of Pittsburgh Pulmonary, Allergy, Critical Care, and Sleep Medicine Lung Biobank and Repository. All experimental procedures involving the use of HBEs were approved by the institutional review board (IRB STUDY19090084) and the Committee for Oversight of Research and Clinical Training Involving Decedents (CORID number 451) at the University of Pittsburgh. At all times, authors were blind to the identity of HBE donors. HBEs were cultured using the Vertex method ([72]). Studies were carried out on WT CFTR HBEs from 11 ([13]) donors and homozygous F508del/F508del CFTR HBEs from five ([5]) separate donors. HBEs were plated on Costar Transwell permeable supports ([…], 6.5 mm insert, polyester membrane, Corning) and grown at an air–liquid interface for 5+ weeks in HBE differentiation medium containing 2% Ultroser-G. Basolateral media were replaced three times per week. For whole-cell patch-clamp studies, HBEs were maintained in BronchiaLife airway media (LifeLine Cell Technology, LS-1047) and plated onto poly-L-lysine-coated coverslips (see below).
Costar Transwell inserts were mounted in a modified Ussing chamber (P2300, Physiologic Instruments) and the monolayers continuously short-circuited (VCC MC8, Physiologic Instruments) by forcing the transepithelial voltage to 0 mV. Short-circuit current (Isc) measurements were taken in symmetric solutions, containing (in mM): 120 NaCl, 25 NaHCO3, 3.3 KH2PO4, 0.8 K2HPO4, 1.2 CaCl2, 1.2 MgCl2, and 10 glucose. The pH of the solution is 7.4 when gassed with 95% O2–5% CO2 at 37°C. Compounds were added cumulatively following the establishment of a new stable current response. Amiloride was added to the apical membrane, while all other compounds were added to both membranes due to their lipophilic nature. In all experiments, 10 µM amiloride was used to inhibit sodium absorption. Percent inhibition was calculated as the change in Isc (ΔIsc) between the forskolin or DCEBIO stable current level and the Isc following addition of the compound being assessed divided by the ΔIsc between the stable forskolin- or DCEBIO-induced Isc and the Isc following bumetanide addition.

SMILES: Cc1nn(C)cc1S(=O)(=O)NC(=O)c1ccc(-n2ccc(OCC(C)(C)C(F)(F)F)n2)nc1N1C[C@@H](C)CC1(C)C [VX-445, elexacaftor]
- inhibition at 10 µM (Homo sapiens, four donors, n = 12 (TRAM-34 series), read-out: inhibition of the DCEBIO-induced current): 69 ± 3%
- decrease of the DCEBIO-induced Cl- current (n = 19): 54 ± 2%
